Values after ≈ are worked out from the molar mass of the structure shown.
Legend:
[1] = system: human epithelial colorectal (Caco-2) cell line; test: MTS cytotoxicity assay; format: cell-based; conditions: Caco-2, MTS assay, highest concentration tested
Protocol: Compounds 1 and 2 were assayed (at concentrations of 16 μg/mL, 32 μg/mL, 64 µg/mL, and 128 μg/mL) against a human epithelial colorectal (Caco-2) cell line (American Type Culture Collection, ATCC HTB-37) using the MTS assay. Cells were cultured in DMEM supplemented with penicillin-streptomycin, nonessential amino acids (1%), and FBS (10%), at 37 °C with CO2 (5%). The cells were incubated with compounds (in triplicate) or DMSO (negative control) in a 96-well tissue culture-treated plate at 37 °C with CO2 (5%) for two hours. The MTS assay reagent (Promega, Madison, WI, USA) was subsequently added to each well and plates were incubated for four hours at 37 °C with CO2 (5%). The quantity of viable cells (at OD490) after treatment was expressed as a percentage of the viability of DMSO-treated control cells (average of triplicate wells ± standard deviation). The toxicity data was analyzed via a two-way ANOVA, with post hoc Dunnet’s multiple comparisons test (n = 3, P < 0.05), utilizing GraphPad Prism 6.0 (GraphPad Software, La Jolla, CA).

[2] = system: S. epidermidis NRS101 biofilm; test: biofilm mass disruption, crystal violet reporter assay; format: cell-based, Staphylococcus epidermidis; conditions: even at 128 μg/mL, 24-hour treatment
Protocol: Compounds 1, 2, and vancomycin were examined for their ability to eradicate mature staphylococcal biofilm using the microtiter dish biofilm formation assay. S. epidermidis NRS101 and S. aureus ATCC 6538 were selected as the test organisms given their ability to form strong adherent biofilm. An overnight culture of bacteria was diluted (1:100 in TSB + 1% glucose) and transferred to a 96-well plate. The plate was incubated for 24 hours at 37 °C in order to form adherent biofilm on the surface of the plate wells. The medium containing the bacterial suspension was removed and the biofilm was washed with sterile PBS to remove planktonic cells. Compounds 1, 2, or vancomycin (from 128 to 1 μg/mL), in triplicate, in TSB were incubated with the biofilm for 24 hours at 37 °C.
Compounds were subsequently removed. The biofilm was washed with PBS and then stained with 1% (w/v) crystal violet for 40 minutes. The stain was removed and wells were washed with sterile PBS. Wells were next decolorized using 95% ethanol. The optical density of each well at 595 nm was measured using a microplate reader.

[3] = system: S. epidermidis NRS101; test: broth microdilution MIC; format: cell-based; conditions: Staphylococcus epidermidis; S. epidermidis NRS101, biofilm-forming strain; read-out: MIC
Protocol: (§1) The broth microdilution assay was employed to determine the MIC of compounds 1, 2, and vancomycin against five MRSA strains, four VRSA strains, one highly mupirocin-resistant S. aureus strain, one biofilm-forming S. aureus (ATCC 6538) strain, and one biofilm-forming methicillin-resistant S. epidermidis strain, as per the guidelines of the Clinical and Laboratory Standards Institute (CLSI). […] The MBC was determined by plating an aliquot (5 μL) from wells with no growth onto TSA plates. Plates were incubated at 37 °C for 19 hours before recording the MBC (concentration where no growth was observed on TSA plates).

[4] = system: S. aureus ATCC 6538; test: broth microdilution MIC; format: cell-based; conditions: Staphylococcus aureus, ATCC6538; S. aureus ATCC 6538, biofilm-forming strain; read-out: MIC
Protocol: as §1

[5] = system: MRSA; design: method as in PMID 28249208; conditions: C. elegans; ref [21]; cited from earlier work
[6] = system: MRSA USA400 (NRS123); test: multi-step resistance selection; format: cell-based, Staphylococcus aureus; conditions: for increase in MIC after fourteen passages: MRSA USA400 (NRS123), fourteen passages over two weeks
Protocol: To assess MRSA’s ability to develop resistance to the diphenylurea compounds after repeated exposure, a multi-step resistance selection experiment was conducted. […] Resistance was classified as a greater than four-fold increase in the initial MIC, as reported elsewhere.

[7] = system: Bacillus subtilis; test: Bacterial Cytological Profiling (BCP); format: cell-based; conditions: two hours, LB-MSM osmotically buffered media, 37 °C
Protocol: B. subtilis cells were grown in Luria Bertani (LB) medium at 37 °C until the optical density at 600 nm (OD600) was ~0.20. Cells were then left untreated or treated with compound 1 or control antibiotics in the presence of methylsulfonylmethane (MSM), as described previously. After two hours, cells were stained with FM 4−64 (1 μg/mL) to visualize cell membranes; DAPI (1 μg/ml) to visualize DNA, and SYTOX Green (1 μg/mL), a vital stain which is normally excluded from cells with an intact membrane but brightly stains cells that are lysed. Images were collected using a Delta Vision Spectris Deconvolution microscope, as described previously.

[8] = system: VRS10; test: microbe, parasite or virus in culture; format: cell-based, Staphylococcus aureus; conditions: VRS10, compound at ½ × MIC
Protocol: CAMHB was inoculated with strain VRS4 or strain VRS10 (5×10^5 CFU/mL), as described previously, with the following modifications. Aliquots ([…]) of the bacterial suspension were divided into micro-centrifuge tubes and compounds 1 or 2 (at ½ × MIC) were introduced into each tube. After 30 minutes of incubation at room temperature, samples from each tube were transferred to a new micro-centrifuge tube, prior to addition of vancomycin (at 128 μg/mL). Plates containing the test agents and bacteria were then incubated at 37 °C for 20–22 hours after which the MIC value was determined. A fold-reduction was calculated by comparing the MIC of vancomycin compared to the MIC of vancomycin given in combination with compounds 1 or 2 (at ½ × MIC).

[9] = system: S. aureus NRS107 (RN4220); test: accumulation of UDP-N-acetylmuramyl pentapeptide (HPLC-MS); format: cell-based, Staphylococcus aureus; conditions: 10 × MIC, 30 minutes
Protocol: The accumulation of UDP-N-acetylmuramyl pentapeptide was detected using a procedure described in a previous study, with the following modifications. S. aureus NRS107 (RN4220), in early logarithmic growth stage (OD600 ~ 0.60), was incubated with 130 μg/mL chloramphenicol for 15 minutes at 37°C. […] Untreated samples served as a negative control. Samples were centrifuged at 10,000 rpm for five minutes, the supernatant discarded, and the pellet re-suspended in sterile deionzined water (1 mL). The pellet was boiled at […] for 30 minutes before samples were chilled on ice for 10 minutes. UDP-N-acetylmuramyl-pentapeptide was measured using an Agilent High Performance Liquid Chromatography coupled to a time-of-flight Mass Spectrometer (HPLC-MS). A Waters XBridge Phenyl (2.1 × 100 mm, 3.5 μm) chromatography column was used, with mobile phases of water, 0.1% formic acid (Buffer A) and acetonitrile, 0.1% formic acid (Buffer B). A gradient of 5–20% Buffer B over 14 minutes was used, with a flow rate of 0.3 mL/min. An electrospray source was used, in positive ionization mode. Extracted Ion Chromatograms (EIC) were generated at a mass-to-charge ratio (m/z) of 1150.3588 (20 ppm window). Mass error for UDP-N-acetylmuramyl-pentapeptide was <1 ppm.

Compound | non-toxic up to (concentration) [1] [µg/mL] | decrease in S. epidermidis biofilm mass [2] | MIC [3] [µg/mL] | MIC [4] [µg/mL] | reducing the burden of MRSA in infected worms [5] | increase in MIC after fourteen passages [6] | cytological profile (cell morphology) [7] | Fold re-sensitization of VRSA to vancomycin [8] | UDP-N-acetylmuramyl pentapeptide accumulation [9] | MIC ([6]; Staphylococcus aureus, read-out: initial MIC) [µg/mL]
C/C(=N\NC(=N)N)c1ccc(NC(=O)Nc2ccc(OC3CCCCCC3)cc2)cc1 [compound 2] | ≥ 128 | no decrease | 4 (≈ 9.47 µM) | 8 (≈ 18.9 µM) | superior to vancomycin | No increase |  |  |  | 
C/C(=N\NC(=N)N)c1ccc(NC(=O)Nc2ccc(OCCC(C)C)cc2)cc1 [compound 1] | ≥ 128 | no decrease | 2 (≈ 5.04 µM) | 4 (≈ 10.1 µM) |  | No increase | cell shape defects | 3-fold | notable increase | 8 (≈ 20.2 µM)

— paper PMC5552351, “Bacteriological profiling of diphenylureas as a novel class of antibiotics against methicillin-resistant Staphylococcus aureus” (PLoS ONE, 2017)
